What was measured:
CYP2D6 = CYP2D6 (Homo sapiens, UniProt P10635); assay: Inhibition of CYP2D6 in human liver microsomes at 10 uM after 20 mins
[1] = Intrinsic clearance in human liver microsomes assessed per mg protein; format: ADME; details: read-out: CLH
A549 = assay: Growth inhibition of human A549 cells after 72 hrs by SRB assay; format: functional; details: A549, 72 h
[2] = Intrinsic clearance in rat liver microsomes assessed per mg protein; format: ADME; details: read-out: CLH
CYP1A2 = target: T1, CYP1A2 (Homo sapiens, UniProt P05177); assay: Inhibition of CYP1A2 in human liver microsomes at 10 uM after 20 mins
T1 sequence (P05177 whole entry): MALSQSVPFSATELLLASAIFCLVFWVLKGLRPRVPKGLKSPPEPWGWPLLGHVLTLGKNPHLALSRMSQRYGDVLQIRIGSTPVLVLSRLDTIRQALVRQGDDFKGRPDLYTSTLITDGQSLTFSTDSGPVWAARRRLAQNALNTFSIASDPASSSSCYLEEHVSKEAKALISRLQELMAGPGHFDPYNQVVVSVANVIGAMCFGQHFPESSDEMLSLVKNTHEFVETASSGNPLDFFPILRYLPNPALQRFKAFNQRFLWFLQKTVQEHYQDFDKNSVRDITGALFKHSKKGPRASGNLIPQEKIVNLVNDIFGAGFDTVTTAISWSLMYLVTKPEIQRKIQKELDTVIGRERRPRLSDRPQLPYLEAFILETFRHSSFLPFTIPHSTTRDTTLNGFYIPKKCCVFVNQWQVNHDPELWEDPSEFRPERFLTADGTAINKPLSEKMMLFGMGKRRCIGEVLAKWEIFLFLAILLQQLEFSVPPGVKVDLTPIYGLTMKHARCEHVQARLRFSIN

[3] = Antitumor activity against human U87MG cells xenografted in mouse assessed as tumor growth inhibition at 50 mg/kg, iv dosed 3 times per week for 17 consecutive days relative to control; format: functional, U-87MG ATCC
CYP3A4 = CYP3A4 (Homo sapiens, UniProt P08684); assay: Inhibition of CYP3A4 in human liver microsomes at 10 uM after 20 mins; details: human liver microsomes
CYP3A4, sequence (P08684 whole entry): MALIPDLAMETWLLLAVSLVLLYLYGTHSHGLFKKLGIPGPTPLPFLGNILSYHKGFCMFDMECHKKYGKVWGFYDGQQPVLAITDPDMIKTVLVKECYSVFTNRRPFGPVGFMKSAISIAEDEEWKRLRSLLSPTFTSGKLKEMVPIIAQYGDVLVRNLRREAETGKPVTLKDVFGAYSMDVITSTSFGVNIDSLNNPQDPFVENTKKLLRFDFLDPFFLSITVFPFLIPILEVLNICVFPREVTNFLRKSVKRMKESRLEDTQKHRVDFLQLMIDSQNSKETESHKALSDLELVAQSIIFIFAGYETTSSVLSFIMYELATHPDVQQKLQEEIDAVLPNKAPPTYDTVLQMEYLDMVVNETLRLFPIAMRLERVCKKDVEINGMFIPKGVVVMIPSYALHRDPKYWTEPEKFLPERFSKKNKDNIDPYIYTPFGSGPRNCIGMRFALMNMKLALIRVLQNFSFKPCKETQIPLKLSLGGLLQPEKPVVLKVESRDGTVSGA

CYP2C9 = CYP2C9 (Homo sapiens, UniProt P11712); assay: Inhibition of CYP2C9 in human liver microsomes at 10 uM after 20 mins
CYP2C9, sequence (P11712 whole entry): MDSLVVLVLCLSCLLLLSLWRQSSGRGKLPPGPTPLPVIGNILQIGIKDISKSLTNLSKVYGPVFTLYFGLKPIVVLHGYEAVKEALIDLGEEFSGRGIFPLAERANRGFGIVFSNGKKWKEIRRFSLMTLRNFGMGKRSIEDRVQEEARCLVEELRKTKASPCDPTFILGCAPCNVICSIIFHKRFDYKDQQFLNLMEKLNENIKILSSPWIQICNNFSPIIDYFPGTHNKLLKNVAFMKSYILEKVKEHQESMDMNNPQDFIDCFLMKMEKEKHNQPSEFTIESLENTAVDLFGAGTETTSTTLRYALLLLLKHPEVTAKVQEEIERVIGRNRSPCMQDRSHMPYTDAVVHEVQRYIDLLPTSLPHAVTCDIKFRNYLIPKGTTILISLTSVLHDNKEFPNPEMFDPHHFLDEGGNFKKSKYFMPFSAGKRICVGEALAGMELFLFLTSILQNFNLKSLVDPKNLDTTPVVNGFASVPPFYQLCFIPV

Mus musculus = assay: Toxicity in human U87MG cells xenografted mouse assessed as weight loss at 25 to 50 mg/kg, iv dosed 3 times per week for 17 consecutive days relative to control; format: organism-based, U-87MG ATCC; design: dose 25-50 mg/kg, route intravenous; details: in vivo
[4] = Antitumor activity against human U87MG cells xenografted in mouse assessed as tumor growth inhibition at 25 mg/kg, iv dosed 3 times per week for 17 consecutive days relative to control; format: functional, U-87MG ATCC

CYP2D6, sequence (P10635 whole entry): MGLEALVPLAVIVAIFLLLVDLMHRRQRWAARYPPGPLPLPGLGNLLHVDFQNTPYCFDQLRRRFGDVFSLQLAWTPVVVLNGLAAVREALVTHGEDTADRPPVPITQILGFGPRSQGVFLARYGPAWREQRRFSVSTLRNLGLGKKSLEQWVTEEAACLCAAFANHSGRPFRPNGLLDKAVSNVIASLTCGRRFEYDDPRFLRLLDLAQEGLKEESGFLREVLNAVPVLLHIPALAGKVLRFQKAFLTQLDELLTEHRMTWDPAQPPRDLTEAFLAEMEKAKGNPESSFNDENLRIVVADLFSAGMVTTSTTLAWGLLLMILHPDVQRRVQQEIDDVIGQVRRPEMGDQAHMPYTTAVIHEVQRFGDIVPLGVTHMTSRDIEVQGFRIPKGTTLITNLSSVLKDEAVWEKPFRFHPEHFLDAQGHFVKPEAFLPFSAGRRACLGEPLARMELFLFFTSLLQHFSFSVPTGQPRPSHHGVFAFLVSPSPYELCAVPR

Structure (SMILES) | inhibition at 20 min, 10 µM (CYP2D6) [%] | microsomal CLint [1] [µL/min/mg] | GI50 (A549) [nM] | microsomal CLint [2] [µL/min/mg] | inhibition at 20 min, 10 µM (CYP1A2) [%] | T/C [3] [%] | inhibition at 20 min, 10 µM (CYP3A4) [%] | inhibition at 20 min, 10 µM (CYP2C9) [%] | Activity (Mus musculus) | T/C [4] [%]
CCNC(=O)c1noc(-c2cc(C(C)C)c(O)cc2O)c1-c1ccc(CN2CCOCC2)cc1 [LUMINESPIB] | 30 | 92 | 26 | 180 | 23 | 34.06 | 12 | 46 | – | –
CC(C)c1cc(-c2noc(NC(=O)C3CC3)c2-c2ccc(CN3CCC(N4CCOCC4)CC3)cc2)c(O)cc1O.Cl | – | – | – | – | – | 18.35 | – | – | Non-toxic | 48.28

Source: ChEMBL document CHEMBL3352482, “Discovery of potent N-(isoxazol-5-yl)amides as HSP90 inhibitors” (Eur J Med Chem, 2014)
